Each compound was assayed against fructose-2,6-bisphosphatase 3/4 (Homo sapiens) (UniProt Q16875+Q16877) (assay: Inhibition of PFKFB3/PFKFB4 in human Panc1 cells assessed as fructose -2,6-bisphosphate production at 12.5 uM preincubated for 1 hr followed by addition of D-glucose measured after 2 hrs by spectrophotometry). Conditions: PANC-1.
Format: cell-based

Chain of fructose-2,6-bisphosphatase 3/4 (Homo sapiens) (Q16875 whole entry, looked up): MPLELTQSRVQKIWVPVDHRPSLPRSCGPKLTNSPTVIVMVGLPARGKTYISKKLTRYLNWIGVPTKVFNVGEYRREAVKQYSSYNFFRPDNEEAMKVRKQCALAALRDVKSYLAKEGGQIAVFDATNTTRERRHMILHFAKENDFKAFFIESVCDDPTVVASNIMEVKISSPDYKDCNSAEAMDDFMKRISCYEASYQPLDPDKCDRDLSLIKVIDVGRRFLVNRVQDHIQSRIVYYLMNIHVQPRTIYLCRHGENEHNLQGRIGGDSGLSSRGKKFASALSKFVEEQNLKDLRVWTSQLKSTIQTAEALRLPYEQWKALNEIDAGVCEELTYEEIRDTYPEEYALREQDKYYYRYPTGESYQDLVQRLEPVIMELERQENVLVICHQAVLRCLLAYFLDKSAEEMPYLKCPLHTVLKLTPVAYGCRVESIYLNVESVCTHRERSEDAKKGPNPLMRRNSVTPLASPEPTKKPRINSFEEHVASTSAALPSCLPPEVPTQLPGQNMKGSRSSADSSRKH
Chain of fructose-2,6-bisphosphatase 3/4 (Homo sapiens) (Q16877 whole entry, looked up): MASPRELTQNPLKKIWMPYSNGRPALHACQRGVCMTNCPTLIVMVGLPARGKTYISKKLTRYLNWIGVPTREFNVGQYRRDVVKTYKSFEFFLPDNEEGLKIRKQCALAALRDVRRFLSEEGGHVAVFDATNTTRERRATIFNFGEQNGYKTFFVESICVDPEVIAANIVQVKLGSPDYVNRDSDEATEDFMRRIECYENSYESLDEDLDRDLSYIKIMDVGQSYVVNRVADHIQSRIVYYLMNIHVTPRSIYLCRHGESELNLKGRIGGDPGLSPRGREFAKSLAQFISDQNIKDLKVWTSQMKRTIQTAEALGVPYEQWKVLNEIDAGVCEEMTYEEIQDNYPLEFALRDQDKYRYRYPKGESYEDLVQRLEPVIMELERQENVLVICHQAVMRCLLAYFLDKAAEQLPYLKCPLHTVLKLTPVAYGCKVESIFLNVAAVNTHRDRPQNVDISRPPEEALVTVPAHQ

inhibition, > 50%:
Cc1c(S(=O)(=O)Nc2cccc(C(=O)Oc3ccccc3)c2)sc2ccc(Cl)cc12
CCOC(=O)c1sc(NS(=O)(=O)c2cc(-c3cc(F)ccc3F)c(Cl)s2)nc1C
CCCCCOC(=O)c1cccc(NS(=O)(=O)c2sc3ccc(Cl)cc3c2C)c1
COCCOC(=O)c1cccc(NS(=O)(=O)c2sc3ccc(Cl)cc3c2C)c1
COC(=O)c1cccc(NS(=O)(=O)c2oc3ccc(C(C)C)cc3c2C)c1
CCOC(=O)c1sc(NS(=O)(=O)c2sc3ccc(Cl)cc3c2C)nc1C
Cc1c(S(=O)(=O)Nc2cccc(C(=O)OCC3CCOC3)c2)sc2ccc(Cl)cc12 (stereo not given)
Cc1c(S(=O)(=O)Nc2cccc(C(=O)OCc3ccccc3)c2)sc2ccc(Cl)cc12
CCOC(=O)c1cccc(NS(=O)(=O)c2sc3ccc(Cl)cc3c2C)c1
Cc1c(S(=O)(=O)Nc2cccc(C(=O)OCCn3cccc3)c2)sc2ccc(Cl)cc12
